Calls of active or inactive are those of the source. No cut-off for these calls is given here.
Legend:
[1] = test system: HCT-116; test: Induction of apoptosis in human HCT116 cells assessed as increase in BimS expression at 5 uM after 6 to 24 hrs by Western blot analysis; assay type: functional, cell-based
[2] = test system: HCT-116; test: Induction of apoptosis in human HCT116 cells assessed as late apoptotic cells at 7.5 uM after 24 hrs by Annexin V-FITC/propidium iodide staining based flow cytometry (reference value: 4.54%); assay type: functional
[3] = test system: HCT-116; test: Induction of apoptosis in human HCT116 cells assessed as viable cells at 5 uM after 24 hrs by Annexin V-FITC/propidium iodide staining based flow cytometry in presence of DTT (reference value: 93.64%); assay type: functional; settings: HCT-116, 24 h, read-out: Activity
[4] = test system: HCT-116; test: Induction of chloroquine-induced autophagic flux in human HCT116 cells assessed as increase in LC3-2 level at 5 uM by Western blot analysis; assay type: functional, cell-based
[5] = test system: HCT-116; test: Induction of apoptosis in human HCT116 cells assessed as caspase activation at 5 uM after 12 hrs by CaspACEFITC-VAD-FMK staining based flow cytometry (reference value: 7.72%); assay type: functional
[6] = test system: HCT-116; test: Induction of apoptosis in Bax deficient human HCT116 cells assessed as early apoptotic cells at 5 uM after 24 hrs by Annexin V-FITC/propidium iodide staining based flow cytometry (reference value: 1.13%); assay type: functional
[7] = Antitumor activity against human HCT116 cells xenografted in immune deficient nude BALB/c mouse assessed as tumor growth inhibition at 5 mg/kg, ip administered every other day for 2 weeks measured after 2 weeks post last dose relative to control; assay type: functional; settings: HCT-116, ip, 336 h, read-out: TGI
[8] = test system: HCT-116; test: Induction of apoptosis in human HCT116 cells assessed as increase in BimEL expression at 5 uM after 6 to 24 hrs by Western blot analysis; assay type: functional, cell-based
[9] = test system: HCT-116; test: Induction of apoptosis in human HCT116 cells assessed as late apoptotic cells at 5 uM after 24 hrs by Annexin V-FITC/propidium iodide staining based flow cytometry (reference value: 3.73 to 4.54%); assay type: functional
[10] = test system: Mus musculus; test: Toxicity in immune deficient nude BALB/c mouse xenografted with Bax deficient human HCT116 cells assessed as discomfort behavioral changes at 5 and 10 mg/kg, ip administered every other day for 2 weeks measured during compound dosing; assay type: organism-based, HCT-116; settings: in vivo, 336 h
[11] = test system: HCT-116; test: Induction of apoptosis in ATG5 scramble human HCT116 cells assessed as late apoptotic cells at 5 uM after 24 hrs by Annexin V-FITC/propidium iodide staining based flow cytometry (reference value: 3.35%); assay type: functional
[12] = test system: HCT-116; test: Induction of apoptosis in Bax deficient human HCT116 cells assessed as early apoptotic cells at 15 uM after 24 hrs by Annexin V-FITC/propidium iodide staining based flow cytometry in presence of NAC (reference value: 0.85%); assay type: functional
[13] = test system: HCT-116; test: Induction of apoptosis in human HCT116 cells assessed as necrotic cells at 5 uM after 24 hrs by Annexin V-FITC/propidium iodide staining based flow cytometry (reference value: 0.44%); assay type: functional
[14] = test system: SW480; test: Induction of apoptosis in human SW480 cells assessed as apoptotic cells at 10 uM after 24 hrs by Annexin V-FITC/propidium iodide staining based flow cytometry; assay type: functional, cell-based
[15] = test system: HCT-116; test: Induction of apoptosis in Bax deficient human HCT116 cells assessed as late apoptotic cells at 10 uM after 24 hrs by Annexin V-FITC/propidium iodide staining based flow cytometry (reference value: 1.5%); assay type: functional

CO[C@@H]1C(C=O)=CC[C@@H]2C3=C(C(C)C)CC[C@]3(C)CC[C@@]2(C)[C@H]1O
Activity [1]: Active | Activity [2]: 20.8% | viability at 5 µM [3]: 80.8% | Activity [4]: Active | Activity [5]: 66.85% | Activity [6]: 6.35% | inhibition in vivo at 5 mg/kg [7]: 26% | Activity [8]: Active | Activity [9]: 13.06% | Activity [10]: Non-toxic | Activity [11]: 5.53% | Activity [12]: 1.42% | Activity [13]: 5.93% | Activity [14]: Active | Activity [15]: 17.64%
